Results as given in article PMC10385162 (Viruses, 2023).
Where “and” joins values, the source holds several entries; their conditions need not be identical. Identical values can stand only once. Like-named read-outs stand apart in the source and are kept apart here.

What was measured:
[1] = biological target: HIV-1 reverse transcriptase (RT)-associated RNase H (Human immunodeficiency virus type 1 group M subtype B, UniProt P03366); assay: HIV-1 RT-associated RNase H inhibition assay; format: biochemical; conditions: for IC50 / IC50 HIV-1 RNase H: concentration required to reduce HIV-1 RT-associated RNase H activity by 50%, mean of three independent experiments ± SD; for Percentage of residual enzymatic activity at the highest concentration tested: HIV-1 RNase H
[2] = biological target: SARS-CoV-2 nsp14/nsp10 ExoN (Severe acute respiratory syndrome coronavirus 2, UniProt P0DTD1); assay: SARS-CoV-2 nsp14 exonuclease (ExoN) activity assay, HPLC, RNA22 substrate; format: biochemical; conditions: for inhibition at 100 µM: read-out: Inhibition of ExoN activity
[3] = tested on: SARS-CoV-2 WA1/2020 strain; format: cell-based
SARS-CoV-2 WA1/2020 = assay: Plaque reduction assay in Vero E6 ACE2 cells; format: cell-based; conditions: for EC50 fold higher compared to 1c: plaque reduction assay
[4] = biological target: full-length SARS-CoV-2 nsp14 MTase (Severe acute respiratory syndrome coronavirus 2, UniProt P0DTD1); assay: SARS-CoV-2 nsp14 N7-methyltransferase activity assay; format: biochemical; conditions: absence vs presence of inhibitor; GpppA substrate, [3H]-SAM

`O=C(N/N=C/c1ccc(O)c([N+](=O)[O-])c1)c1cc2ccccc2cc1O` [1a, (E)-N’-(4-Hydroxy-3-nitrobenzylidene)-3-hydroxy-2-naphthohydrazide] gave an IC50 ([1]; read-out: IC50 HIV-1 RNase H) of 69.6 ± 8.46 µM.

For `COc1cc(/C=N/NC(=O)c2cc3ccccc3cc2O)cc([N+](=O)[O-])c1O` [1b, (E)-N′-(4-Hydroxy-5-methoxy-3-nitrobenzylidene)-3-hydroxy-2-naphthohydrazide], the IC50 ([1]; read-out: IC50 HIV-1 RNase H) was 7 to 8 µM and 7.16 µM.

For `O=C(N/N=C/c1cc(O)c(O)c([N+](=O)[O-])c1)c1cc2ccccc2cc1O` [1c, (E)-N′-(3,4-Dihydroxy-5-nitrobenzylidene)-3-hydroxy-2-naphthohydrazide], the IC50 ([2]; RNA22 substrate, HPLC) was 2200 nM, the “Inhibition of ExoN activity” value ([2]; at 100 µM) was “complete inhibition” and the “Effect on virus titers” value ([3]; 12.5 µM, A549 ACE2+ cells, MOI 0.05) was “no measurable effect”. The “Reduction in virus titers” value ([3]; 25 µM, 24 h post-infection) was 6.4 fold, the “Reduction in virus titers” value ([3]; 25 µM, 48 h post-infection) was 7.8 fold and the “Reduction in virus titers” value ([3]; 50 µM, 24 h post-infection) was 78.5 fold. For the same compound, the “Reduction in virus titers” value ([3]; 50 µM, 48 h post-infection) was 48.9 fold, the EC50 (SARS-CoV-2 WA1/2020; concentration required to reduce plaque number by 50%, 3 d, mean and SD of three independent experiments, read-out: EC50 anti-SARS-CoV-2 activity by plaque reduction assay) was 10.23 ± 0.01 µM and the “Effect on nsp14 MTase activity (tritium incorporation)” value [4] was “no significant differences”. The IC50 ([1]; IC50 HIV-1 RNase H) was 0.57 ± 0.04 µM.

`O=C(N/N=C/c1cc(O)ccc1O)c1cc2ccccc2cc1O` [1d] showed an IC50 ([1]; read-out: IC50 HIV-1 RNase H) of 35.9 ± 8.6 µM.

In the case of `COc1ccc(/C=N/NC(=O)c2cc3ccccc3cc2O)c(O)c1O` [1e, (E)-N’-(2,3-Dihydroxy-4-methoxybenzylidene)-3-hydroxy-2-naphthohydrazide], the IC50 ([1]; read-out: IC50 HIV-1 RNase H) is reported as 1.02 ± 0.15 µM.

With `O=C(N/N=C/c1ccc(O)c(O)c1O)c1cc2ccccc2cc1O` [1f] the IC50 ([1]; read-out: IC50 HIV-1 RNase H) was 0.93 ± 0.24 µM.

For `COc1ccc(/C=N/NC(=O)c2cc3ccccc3cc2O)cc1O` [1g], the “Percentage of residual enzymatic activity at the highest concentration tested” value [1] was 84% and the IC50 ([1]; read-out: IC50 HIV-1 RNase H) was > 100 µM.

With `O=C(N/N=C/c1ccc(O)cc1O)c1cc2ccccc2cc1O` [1h] the IC50 ([1]; read-out: IC50 HIV-1 RNase H) was 36.4 ± 10.5 µM.

In the case of `CN(C)c1ccc(/C=N/NC(=O)c2cc3ccccc3cc2O)cc1` [1i], the IC50 ([1]; read-out: IC50 HIV-1 RNase H) is reported as 27.5 ± 2.65 µM.

In the case of `CC(=O)Nc1ccc(/C=N/NC(=O)c2cc3ccccc3cc2O)cc1` [1j], the “Percentage of residual enzymatic activity at the highest concentration tested” value [1] is reported as 91%, the “IC50 HIV-1 RNase H” value [1] is reported as “inactive” and the IC50 ([1]; read-out: IC50 HIV-1 RNase H) is reported as > 100 µM.

With `CCN(CC)c1ccc(/C=N/NC(=O)c2cc3ccccc3cc2O)cc1` [1k] the IC50 ([1]; read-out: IC50 HIV-1 RNase H) was 7 to 8 µM and 7.94 µM.

With `CN1CCN(c2ccc(/C=N/NC(=O)c3cc4ccccc4cc3O)cc2)CC1` [1l, (E)-N’-[4-(N-Methylpiperazinyl)benzylidene]-3-hydroxy-2-naphthohydrazide] the melting point was 256 to 257 °C, the “Percentage of residual enzymatic activity at the highest concentration tested” value [1] was 70% and the “IC50 HIV-1 RNase H” value [1] was “inactive”. The IC50 ([1]; read-out: IC50 HIV-1 RNase H) was > 100 µM.

With `O=C(N/N=C/c1cc(O)c(O)c([N+](=O)[O-])c1)c1ccccc1O` [2a, (E)-N′-(3,4-Dihydroxy-5-nitrobenzylidene)-2-hydroxybenzohydrazide] the inhibition at 100 µM [2] was ~65%, the melting point was 275 °C (dec.) and the “EC50 fold higher compared to 1c” value (SARS-CoV-2 WA1/2020) was 4.3 fold. The IC50 ([1]; IC50 HIV-1 RNase H) was 14 ± 0.97 µM.

For `O=C(N/N=C/c1cc(O)c(O)c([N+](=O)[O-])c1)c1cccc(F)c1` [2b, (E)-N′-(3,4-Dihydroxy-5-nitrobenzylidene)-3-fluorobenzohydrazide], the inhibition at 100 µM [2] was ~53%, the melting point was 251 to 252 °C (dec.) and the “EC50 fold higher compared to 1c” value (SARS-CoV-2 WA1/2020) was 3.4 fold. It also gave an IC50 ([1]; IC50 HIV-1 RNase H) of 15.2 ± 1.35 µM.

With `O=C(N/N=C/c1cc(O)c(O)c([N+](=O)[O-])c1)c1cccnc1` [2c, (E)-N′-(3,4-Dihydroxy-5-nitrobenzylidene)-nicotinoylhydrazide] the inhibition at 100 µM [2] was ~37%, the melting point was 250 to 251 °C (dec.) and the “EC50 anti-SARS-CoV-2 activity by plaque reduction assay” value (SARS-CoV-2 WA1/2020; concentration required to reduce plaque number by 50%, 3 d, mean and SD of three independent experiments) was “inactive”. The IC50 ([1]; IC50 HIV-1 RNase H) was 24.7 ± 3.89 µM.

With `O=C(N/N=C/c1ccc(O)c(O)c1)c1cc2ccccc2cc1O` [Dynasore, (E)-N′-(3,4-dihydroxybenzylidene)-3-hydroxy-2-naphthohydrazide, reference compound] the IC50 ([1]; read-out: IC50 HIV-1 RNase H) was 3.1 ± 0.52 µM.

`CCOC(=O)C(=O)CC(=O)/C=C/c1cccn1Cc1ccc(F)cc1` [RDS1643, reference compound] gave an IC50 ([1]; read-out: IC50 HIV-1 RNase H) of 10.8 ± 5.2 µM.
